Values after ≈ are worked out from the molar mass of the structure shown.
System: Mycobacterium tuberculosis variant bovis
Experiment: Antimycobacterial activity against Mycobacterium bovis BCG ATCC 35743 measured on 8th to 12th day by nitrate reductase assay
Assay type: functional
Conditions: BCG str. ATCC 35743, time 8-12 day

Row | Compound | IC90 [µg/mL]
1 | Cc1cc(NS(=O)(=O)c2ccc(N3C(=O)CSC3c3c(Cl)cccc3Cl)cc2)no1 (stereo not given) | 0.058 (≈ 0.12 µM)
2 | Cc1cc(NS(=O)(=O)c2ccc(N3C(=O)CSC3c3ccc(C(F)(F)F)cc3)cc2)no1 (stereo not given) | 0.058 (≈ 0.12 µM)
3 | Cc1cc(NS(=O)(=O)c2ccc(N3C(=O)CSC3c3c(F)cccc3F)cc2)no1 (stereo not given) | 0.058 (≈ 0.128 µM)
4 | Cc1cc(NS(=O)(=O)c2ccc(N3C(=O)CSC3c3ccc(F)cc3)cc2)no1 (stereo not given) | 0.058 (≈ 0.134 µM)
5 | Cc1cc(NS(=O)(=O)c2ccc(N3C(=O)CSC3c3ccc(Cl)cc3)cc2)no1 (stereo not given) | 0.058 (≈ 0.129 µM)
